Consider 3 compounds from US8003689B2, “Metabolites of selective androgen receptor modulators and methods of use thereof” (GTx, Inc., priority 2008, dated 2011).

Series [1] can be described thus: Permeability and efflux potential across Caco-2 monolayers. On the set-up: Papp A→B / Papp B→A: dose or concentration left out as unconfirmed. To be noted: human. On the procedure: (§1) Permeability (and efflux potential) was measured in the Apical (pH 6.5) to Basolateral (pH 7.4) and Basolateral (pH 7.4) to Apical (pH 6.5) directions across polarized, Caco-2 epithelial monolayers. Compound stocks were tested at a final concentration of […]. The concentration of drug in the receiver well was measured by LC/MS/MS using a standard curve.

The test system of series [2] is Caco-2 epithelial monolayers. The series is described as above. On the set-up: Papp A→B / Papp B→A: dose or concentration left out as unconfirmed. How it is done: as §1
A further series has as its system CYP2C9. As to the kind of experiment: CYP2C9 induction in primary human hepatocytes. Format: in vitro ADME. How it is done:
(§2) Cytochrome P450 enzyme inhibition was measured using human, cDNA-expressed CYP3A4, 2D6, 2C19, 2C9, and 1A2 enzymes. Analogues of the model substrate coumarin were utilized for each isozyme, at a concentration near the apparent Km of this substrate. Compound stocks were tested using an 8-point dose-response curve in duplicate (ranging from […]). […] For microsome-based CYP inhibition measurements, all substrates were utilized at the approximate Km value. […] Duplicate wells in the induction assay were used to measure both functionality and expression of the CYP enzyme.

Series [3] in a line: Metabolic stability in primary monkey hepatocytes. Format: in vitro ADME.
For series [4], the system named is primary monkey hepatocytes. As to the kind of experiment: Metabolic stability in primary monkey hepatocytes. Format: in vitro ADME.
Series [5] can be described thus: Metabolic stability in human liver microsomes. Format: in vitro ADME. How it is done: Human liver microsomes and hepatocytes were utilized at a final concentration of 1.0 mg/ml and 1×10^6 cells/ml, respectively. Duplicate wells were used for each time point (0, 5, 10, 30, and 60 minutes). The concentrations of parent drug remaining in each well were analyzed on an MDS/Sciex API4000 Q Trap system with electrospray ionization (ESI) in the positive and/or negative SIM mode, depending on the test compound(s). […] For hepatocyte assays, cell viability was also monitored at each time point (from replicate wells) using the Trypan Blue exclusion method.
Background: Microsomes from liver hold many membrane-bound enzymes, among them those of drug oxidation.

The next series has as its system CYP3A4. The series can be described thus: CYP3A4 induction in primary human hepatocytes. Format: in vitro ADME. How it is done:
as §2

The test system of series [6] is Rat Hepatocytes. As to the kind of experiment: In vitro metabolites of Compound I in rat hepatocytes. Format: in vitro ADME. The note with it: metabolite formed from Compound I.
Series [7] can be described thus: In vitro metabolites of Compound I in rat liver microsomes. Format: in vitro ADME. To be noted: metabolite formed from Compound I.
The test system of another series is dog hepatocytes. The series can be described thus: Hepatocyte assay of Compound II, dog. Format: in vitro ADME. How it is done: (§3) The stock solutions (10 mM in acetonitrile) for the test compounds were diluted in the incubation media to a working concentration of 100 μM (2×). Thawing frozen hepatocytes was followed by performing Percoll purification as described in manufacturer's manual. Primary hepatocytes were resuspended in incubation media and viability was measured using trypan blue exclusion method. The initial viability score was registered as ‘T0’ (time point of 0 minute), and viability was required to be at least ˜70% at this point for the experiment to continue. Cells were washed a second time (60 g for 5 minutes) with supplemented DMEM and the final concentration was adjusted to […] (2×). Samples were set up in 48-well plates, using 2 wells per each time point. A trypan blue well was also set up for viability analysis at the end of study (T=120 min). 100 μl of the 2× drug solution was combined with 100 μl of the 2× hepatocyte suspension. Final concentration was […] (200,000 cells/well) and 50 μM compound. Final concentration of acetonitrile was 0.5%. […]
(§4) The mass spectrometers were operated in EMS mode in order to detect all possible metabolites. […] Intensity of putative metabolite was semi-quantitated using the peak area of the metabolites in XIC, which was subtracted with the peak area of time zero control at the same retention time with the metabolites.

The nature of series [8]: Phase I microsome reactions of Compound II, rat. The note with it: Rat liver microsomes; not absolutely quantitative (n = 2). Format: in vitro ADME. On the procedure:
(§5) Test compound stock solutions were prepared in acetonitrile at 10 mM, 200 times (200×) the final concentration. The stock solutions were added in incubation mixtures to obtain the final drug concentration of 50 μM, containing 0.5% acetonitrile. A concentration of 50 μM was utilized to allow for detection of possible minor metabolites (select studies were run at 10 μM for confirmatory purposes). Human, monkey, dog, rat, mouse microsomes were all utilized at a final concentration of 1.0 mg/ml. Duplicate wells were used for each time point (0 and 120 minutes). Incubation was conducted at 37° C. in a shaking water bath. The final volume for each reaction was 200 μl, composed of: 66 μl of 0.2 M KPO4 buffer, (pH 7.4); 73 μl of H2O, 10 μl of 20 mg/ml microsome stock; 1.0 μl of 10 mM compound stock, and 50 μl of NRS solution. The NRS solution consisting of glucose-6-phosphate dehydrogenase, NADP+, MgCl2, and glucose-6-phosphate, was prepared as described in manufacturer's instructions. […]
as §4

Series [9] is described as follows: Phase I and II microsome reactions (+UDPGA) of Compound II, dog. Format: in vitro ADME. To be noted: Dog liver microsomes (+UDPGA). How it is done: (§6) For microsome reactions performed under conditions allowing for both phase I and II metabolism, the initial procedure and reaction conditions were followed similarly as described above. Additional cofactors were also included in each reaction to maximize the potential for in vitro glucuronidation to occur. UDPGA was added at a final concentration of 5.0 mM. Saccharolactone (β-glucuronidase inhibitor) and alamethicin (pore forming peptide) were added to each reaction at a final concentration of 5.0 mM and 50 μg/ml, respectively.
(§7) Each 200 μl microsomal reaction solution was composed of: 66 μl of 0.2 M KPO4 buffer, (pH 7.4); 50 μl of NRS solution (as described above); 66 μl of UDPGA (15 mM stock); 5.0 μl of saccharolactone (200 mM stock); 0.5 μl of alamethicin (20 mg/ml); 0.6 μl of MgCl2 (1 M stock); and 10 μl of microsomes (20 mg/ml stock).
(§8) At the end of incubation, 100 μl of reaction solution under incubation was transferred to a sample well containing 100 μl of ice cold acetonitrile to quench the reaction. […]
as §4

The subject of another series is human hepatocytes. The series can be described thus: Hepatocyte assay of Compound II, human. Format: in vitro ADME. On the procedure:
as §3, §4

The nature of series [10]: Phase I microsome reactions of Compound II, monkey. Format: in vitro ADME. To be noted: Monkey liver microsomes; not absolutely quantitative (n = 2). On the procedure: as §5, §4
Series [11] is described as follows: Phase I microsome reactions of Compound II, mouse. Format: in vitro ADME. To be noted: Mouse liver microsomes; not absolutely quantitative (n = 2). How it is done:
as §5, §4

Series [12] in a line: Phase I microsome reactions of Compound II, human. The note with it: Human liver microsomes; not absolutely quantitative (n = 2). Format: in vitro ADME. How it is done:
as §5, §4

Series [13] in a line: Phase I and II microsome reactions (+UDPGA) of Compound II, rat. Format: in vitro ADME. The note with it: Rat liver microsomes (+UDPGA). How it is done:
as §6, §7, §8, §4

Series [14] in a line: Phase I and II microsome reactions (+UDPGA) of Compound II, human. To be noted: Human liver microsomes (+UDPGA). Format: in vitro ADME. On the procedure: as §6, §7, §8, §4
Series [15] in a line: Phase I and II microsome reactions (+UDPGA) of Compound II, monkey. Format: in vitro ADME. The note with it: Monkey liver microsomes (+UDPGA). How it is done: as §6, §7, §8, §4
The test system of series [16] is Rat Hepatocytes. As to the kind of experiment: Hepatocyte assay of Compound II, rat. Format: in vitro ADME. How it is done: as §3, §4
Series [17] in a line: Phase I and II microsome reactions (+UDPGA) of Compound II, mouse. The note with it: Mouse liver microsomes (+UDPGA). Format: in vitro ADME. On the procedure: as §6, §7, §8, §4
Another series relates to monkey hepatocytes. The series can be described thus: Hepatocyte assay of Compound II, monkey. Format: in vitro ADME. How it is done: as §3, §4
Series [18] can be described thus: Phase I microsome reactions of Compound II, dog. Format: in vitro ADME. The note with it: Dog liver microsomes; not absolutely quantitative (n = 2). On the procedure:
as §5, §4

Another series relates to mouse hepatocytes. The series can be described thus: Hepatocyte assay of Compound II, mouse. Format: in vitro ADME. On the procedure: as §3, §4
The mark [19] stands for this setting: Human Liver Microsomes, Phase I.
[20] abbreviates: Human Liver Microsomes, Phase I + II.

What is called Papp B→A is the apparent permeability from the basolateral to the apical side of a cell layer. By Papp A→B is commonly meant how fast a substance crosses the layer from the apical side. The CLint scaled is the capacity of the preparation to metabolise the compound, expressed as a volume cleared per time. As usually defined, the microsomal CLint is the rate of metabolic loss divided by the concentration.

The compound `C[C@](O)(COc1ccc(C#N)cc1)C(=O)Nc1ccc(C#N)c(C(F)(F)F)c1` [Compound I, (S)—N-(4-cyano-3-(trifluoromethyl)phenyl)-3-(4-cyanophenoxy)-2-hydroxy-2-methylpropanamide] returned a Papp B→A in [1] (Caco-2) of 29 ×10⁻⁶ cm/s. Further, the Papp A→B in series [1] (Caco-2, Permeability Classification, classified from Papp (A-B)) is over 10 ×10⁻⁶ cm/s. Further, in series [2] (Caco-2 permeability assays), the efflux potential result is reported as “low”. Also, the “Permeability Classification” value in [2] (classified from Papp (A-B)) was “high”. Also, the “induction of CYP2C9 activity” value with CYP2C9 is listed as “does not induce”. Also, the CLint scaled in series [3] was under 1 mL/min/kg. Besides, in series [4], the Half-Life entry is “Stable”. Further, in series [5] (setting [19]), the “Half-Life Phase I” value is on record as “Stable” and the microsomal CLint was under 1000 µL/min/mg. In addition, in series [5] (setting [20]), the “CLint Phase I + II” value was under 1000 µL/min/mg and the “Half-Life Phase I + II” value is “Stable”. Also, in series [5] (microsomal and hepatocyte assays, both phase I and phase I/II metabolic conditions), the “in vitro half-life (stability in words)” value was “mostly stable”. The “induction of CYP3A4 activity” value in the series on CYP3A4 is recorded as “does not induce”.

In the case of `C[C@@](COc1ccc(C#N)cc1)(OC1OC(C(=O)O)C(O)C(O)C1O)C(=O)Nc1ccc(C#N)c(C(F)(F)F)c1` (stereo partly drawn) [Compound 564], the “relative abundance of in vitro metabolites of Compound I (m/z 388)” value with Rat Hepatocytes [6] was determined as 0.37; in series [7], 1.92.

In the case of `N#Cc1ccc(N)cc1Cl` [Compound 151], the “Relative Percent of XIC for Phase I and II Metabolites of Compound II” value is given as 4.7% with dog hepatocytes; 0.5% in the series with human hepatocytes; 0.9% with Rat Hepatocytes [16]; 2.2% in the series with monkey hepatocytes; 0.8% in the series on mouse hepatocytes. Further, the “Relative Percent of Extracted Ion Chromatogram (XIC) for Phase I metabolites of Compound II” value in [8] came to 4%; in series [10], 4%; in series [11] it was 4%; in series [12] it was 3%; in series [18], 6%. The “Relative Percent of XIC for Phase I and Glucuronide Metabolites of Compound II” value turned out to be 2.9% in series [9]; 1.4% in series [13]; 0.8% in series [14]; 1.6% in series [15]; 1.1% in [17].
